Entries after “also recorded” stand apart in the source; their conditions may differ.
Key:
[1] = system: cord blood mononuclear cells (CBMCs); assay: LPS tolerance / pretreatment in CBMCs; format: cell-based, human
Protocol: Cells were dosed with AVR-48 [100 μM], LPS [50 ng/mL], and in combination show (FIG. 16A). […] N=3, One-way ANOVA was used for analysis. […] N=3, Two-way ANOVA.
N=3 *p<0.05, **p<0.01, ***p<0.001. One-way ANOVA and t tests.

[2] = system: TLR4 and pathway-related cytokines, apoptosis, proliferation and permeability markers in lung tissue homogenates; assay: Immunoblot and RT-PCR of lamb lung tissue homogenates; format: in vivo
Protocol: For molecular analyses, the right caudal lobe was cut into 1 cm^3 pieces (˜1 g each), again using systematic, uniform, random sampling methods. The lung pieces were from peripheral tissue devoid of visceral pleura and central airways, vessels, and connective tissue. The pieces were snap-frozen in liquid nitrogen and stored at −80° C. Homogenates of frozen tissue pieces were used for quantitative real-time RT-PCR and immunoblot analyses. Expression of mRNA was normalized to GAPDH. For immunoblot analysis, cleaved caspase 3 was used (EnzoADI-AAP-113, Enzo Life Sciences, Inc., Farmingdale, NY), PCNA (ab2426, Abcam, Cambridge, MA), and VEGF-R2 (sc-393163, Santa Cruz Biotechnology, Dallas, TX) proteins. Positive controls for immunoblot were the respective native proteins. Protein abundance was normalized, using Memcode (P124585, Fisher Scientific, Pittsburgh, PA).

[3] = system: preterm lamb model of BPD; assay: Respiratory system mechanics (ventilator, forced oscillation technique, methacholine challenge); format: in vivo
Protocol: Respiratory system mechanics assessments with methacholine challenge. The respiratory system mechanics were assessed for the early-stage study (DOL1-10) and late-stage study (DOL10-90). For the early-stage research, the Drager ventilator recorded respiratory system mechanics every 5 min while the PT lambs were intubated and mechanically ventilated. The parameters were dynamic lung compliance and resistance. The inventors averaged the parameters every 12 h.
For the early and late-stage studies, after the lambs were extubated and transitioned to noninvasive respiratory support and spontaneously breathing (DOL7-10) and thereafter to DOL90, the inventors used forced oscillometry (FOT; model Tremoflo N-100; Thorasys, Thoracic Medical Systems Inc., Montreal, QC, Canada), with a filter (Humid-Vent Filter Small A, Teleflex Medical, Ireland). This instrument, validated in term and PT human infants,^18 allows the measurement of respiratory system mechanics in uncooperative subjects (not intubated and breathing spontaneously) by applying a pressure stimulus at the airway opening and measuring the resulting flow. The inventors used a small canine mask (product number 93815026; Midmark Corp., Versailles, OH). The FOT device was calibrated daily, and the use followed the manufacturer's instructions. The inventors used the standard TremoFlo-supplied software without modifications. The software enables post hoc inspection of the measurement time course. As recommended by the manufacturer, any measurement with a leak was discarded. FOT measurements were made for the FPT lambs at 1 month corrected postnatal age (1 moC; DOL60) and 2 moC (DOL90). The comparison time points for term reference lambs were matched for corrected postnatal age.
FOT analysis was done on lambs that stood prone, supported by a veterinary sling. The lambs were given Lorazepam (0.1 mg/Kg, intramuscularly) to keep them calm. The mask was placed over their muzzle and held in place by a tender. The lambs were habituated to the sling and mask before testing was done. FOT was used to measure respiratory system resistance and reactance in four steps: (1) baseline, (2) bronchodilator (albuterol), (3) bronchoconstrictor (methacholine challenge), and (4) bronchodilator (albuterol). The inventors used an Aeroneb Pro nebulizer (Aerogen Ltd, Galway, Ireland) connected to the mask. The inventors repeatedly measured tissue O2 saturation by pulse oximetry, heart rate, and blood pressure. After the baseline measurement, the inventors nebulized albuterol (1.5 mL; Hi-Tech Pharmacal Co., Amityville, NY) to dilate the airways in each lamb before methacholine challenge. Airway responsiveness was assessed during stepwise increases in nebulized methacholine (Provocholine; Pancap, Inc., Markham, Ontario, Canada), according to the ATS 1999 guideline^19 and reported by the inventors for FPT and term reference lambs.^14 Methacholine concentration was doubled for each step, starting from 0.06 mg/mL up to a maximum concentration of 4.00 mg/mL. At the end of the methacholine challenge steps, 1.5 mL of albuterol was nebulized to dilate the airways. All lambs tolerated the procedure, which took 45-60 min.

[4] = Clinical biochemistry and physiological parameters of treated lambs; format: in vivo, lamb
Protocol: Arterial blood and free-fall urine samples were collected every 24 h and analyzed for indicators of liver and kidney function (Associated Regional and University Pathologists (ARUP) Laboratories, Salt Lake City).
Clinical biochemistry. Plasma and urine samples were analyzed by Associated Regional and University Pathologists (ARUP) at the University of Utah. Plasma renal function parameters are urea nitrogen and creatinine. Plasma hepatic function parameters are alkaline phosphatase, aspartate aminotransferase, alanine aminotransferase, total protein, albumin, bilirubin total, and direct bilirubin.
Physiological parameters for lambs in the early and late-stage studies. Physiology results were obtained including cardiovascular physiology, temperature, respiratory rates, indices for oxygenation, ventilation indices, plasma pH, bicarbonate, base excess, plasma electrolytes, plasma glucose, hematocrit (Hct), total serum protein (Tsp), lactate, enteral feeding, milk residual, and hematology for early and late-stage studies.

CD163 scavenger receptor = biological target: T1, CD163 scavenger receptor (Homo sapiens, UniProt Q86VB7); assay: Binding of AVR-48 to CBMC monocytes and lymphocytes by flow cytometry
T1 construct: endogenous in cells; host or cells: human cord blood mononuclear cells (monocytes and lymphocytes)
T1 sequence (Q86VB7 42-1156): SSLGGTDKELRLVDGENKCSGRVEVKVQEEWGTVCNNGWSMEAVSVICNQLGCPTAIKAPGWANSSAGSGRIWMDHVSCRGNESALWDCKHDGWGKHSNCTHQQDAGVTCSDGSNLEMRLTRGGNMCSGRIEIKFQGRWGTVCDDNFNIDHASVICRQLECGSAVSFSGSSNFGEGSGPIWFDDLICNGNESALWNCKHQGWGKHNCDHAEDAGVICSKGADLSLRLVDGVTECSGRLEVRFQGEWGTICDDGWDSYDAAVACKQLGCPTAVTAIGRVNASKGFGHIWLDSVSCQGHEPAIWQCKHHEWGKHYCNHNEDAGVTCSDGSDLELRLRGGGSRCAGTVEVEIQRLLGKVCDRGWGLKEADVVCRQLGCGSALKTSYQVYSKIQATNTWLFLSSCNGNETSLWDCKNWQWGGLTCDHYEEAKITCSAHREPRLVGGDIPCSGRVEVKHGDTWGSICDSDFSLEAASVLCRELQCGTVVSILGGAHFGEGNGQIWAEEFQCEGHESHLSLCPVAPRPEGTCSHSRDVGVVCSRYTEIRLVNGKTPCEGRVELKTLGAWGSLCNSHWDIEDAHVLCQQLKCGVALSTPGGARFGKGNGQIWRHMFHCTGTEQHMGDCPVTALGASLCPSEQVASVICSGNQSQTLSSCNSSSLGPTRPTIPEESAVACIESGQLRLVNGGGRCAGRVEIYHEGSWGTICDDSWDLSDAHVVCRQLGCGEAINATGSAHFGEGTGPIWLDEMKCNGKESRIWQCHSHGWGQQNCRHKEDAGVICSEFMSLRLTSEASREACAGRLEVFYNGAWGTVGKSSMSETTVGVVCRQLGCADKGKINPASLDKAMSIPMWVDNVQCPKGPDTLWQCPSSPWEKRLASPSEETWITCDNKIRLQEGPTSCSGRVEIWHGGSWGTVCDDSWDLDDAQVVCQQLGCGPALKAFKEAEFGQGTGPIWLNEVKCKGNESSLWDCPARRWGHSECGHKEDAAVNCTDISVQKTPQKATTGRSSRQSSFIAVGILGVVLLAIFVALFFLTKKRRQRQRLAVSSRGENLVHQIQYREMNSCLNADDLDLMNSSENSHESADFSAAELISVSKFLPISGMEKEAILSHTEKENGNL
From the text: N=3 *p≤0.05, **p≤0.01, ***p≤0.001, **** p≤0.0001. Two-way ANOVA was used for statistical analysis.

[5] = late-stage study, FPT lambs vs FPT vehicle
[6] = FOT, d90, FPT lambs vs FPT vehicle
[7] = ventilator-measured, invasive mechanical ventilation DOL1-7, PT lambs vs vehicle
[8] = early-stage study DOL 1-7, vs vehicle

In the case of `CC(=O)NC1C(Oc2ccc([N+](=O)[O-])cc2)OC(CO)C(O)C1O` (centres unmarked) [AVR-48], the IL-1β profile ([1]; CBMC pre-treated with compound 100 μM for 48 h followed by LPS 50 ng/mL) is reported as “inhibited IL-1β profile”, the “TNF-α in LPS-tolerant CBMCs” value ([1]; low dose LPS 48 h then second (high dose) LPS, with addition of compound) is reported as “increased production of TNF-α” and the TNF-α level ([1]; pretreatment 48 h followed by LPS 24 h, vs control) is reported as “significant higher level”. For the same compound, the P53 in lung ([2]; 90-day study, vs FPT vehicle lamb lungs) was “higher”, the “cleaved caspase-3 protein levels in lung” value ([2]; DOL10, PT lambs vs vehicle) was “significantly lower level” and the “mRNA levels for p53, caspase-3, c-Myc, and TGF-β in lung” value ([2]; DOL10, PT lambs vs vehicle) was “No significant difference”. The “relative mRNA levels of TLR4 and cytokines in lung” value ([2]; PT lambs vs control, FPT and term lambs) was “No differences were found”, the “protein concentration of TLR4 and pathway-related cytokines in lung tissue” value ([2]; early-stage study) was “no differences were detected” and the “VEGF-A protein level in lung” value ([2]; early-stage study, 10d, PT group vs vehicle) was “significant decrease”. The “TLR4 protein concentration (relative protein level) in lung tissue” value ([2]; late-stage study (DOL90), FPT AVR-48 lambs) was 0.007±0.004, the “TLR4 protein concentration in lung tissue vs vehicle” value ([2]; late-stage study (DOL90), FPT lambs vs FPT vehicle) was “significantly lower” and the “mRNA expression and protein level for VEGF-A, VEGFR2, and SP-B in lung” value ([2]; late-stage study, 90d, FPT AVR-48 vs FPT vehicle) was “no significant difference”. For the same compound, the “IL-6 protein in lung tissue” value [2, 5] was “appeared lower (not significant)”, the “IL-10 protein concentration in lung tissue” value [2, 5] was “appeared higher (not significant)” and the “TNF-α protein in lung tissue” value [2, 5] was “appeared lower (not significant)”. The “resistance and reactance of the respiratory system” value ([3]; FOT, DOL 60, late-stage study) was “No significant difference”, the “baseline reactance at 5 and 10 Hz (upper and large airways)” value [3, 6] was “significantly less negative” and the “baseline resistance at 5 Hz (upper and large airways)” value [3, 6] was “significantly lower”. The “reactance at 5 and 10 Hz after methacholine challenge” value [3, 6] was “significantly less negative”, the “reactance at 7-20 Hz after albuterol nebulization” value [3, 6] was “less negative reactance” and the “resistance at 5 Hz after methacholine challenge” value [3, 6] was “significantly lower resistance”. For the same compound, the “resistance at 7-20 Hz after albuterol nebulization” value [3, 6] was “significantly lower resistance”, the “respiratory system resistance in large (5 Hz), middle (7-20 Hz), and small (41 Hz) airways” value ([3]; FOT, end of early-stage study (DOL10), PT lambs 3.0 mg/kg vs vehicle) was “significantly lower resistance” and the “airway reactance AX (area under the curve below zero)” value ([3]; FOT, end of early-stage study (DOL10), PT lambs vs vehicle) was “significantly lower”. The dynamic lung compliance [3, 7] was “No statistically significant differences; also recorded: consistently lower”, the lung resistance [3, 7] was “No statistically significant differences” and the “clinical parameters (plasma renal and hepatic function)” value ([4]; AVR-48 treated lambs) was “within the normal range”. For the same compound, the “physiological outcomes (cardiovascular, temperature, respiratory rates, plasma chemistry, feeding, hematology)” value ([4]; early and late-stage studies) was “no adverse effect”, the Hematology [4, 8] was “No statistical difference” and the “plasma glucose, Hct, Tsp, and lactate” value [4, 8] was “No statistical difference”. The “plasma pH, bicarbonate, and BE” value [4, 8] was “No statistical difference”, the “temperature or respiratory rate” value [4, 8] was “No statistical difference” and the systolic blood pressure ([4]; early-stage study, DOL 6, vs vehicle, not observed on any other days) was “higher systolic blood pressure”. For the same compound, the “volume of tolerable enteral feeding and residual in the stomach” value ([4]; in vivo) was “No statistical difference” and the “binding to CD163 scavenger receptor” value (CD163 scavenger receptor) was “exhibits a binding affinity”.

Reference: US20250332183A1, “COMPOSITIONS AND METHODS FOR THE STIMULATION OF INTERMEDIATE MACROPHAGES AND TREATMENTS THEREWITH” (priority 2024, published 2025)
